This is an account of results in patent publication US20090227606A1, “Methods for Preventing or Treating Acute and Chronic Pain” (priority 2006, published 2009).

Entries after “also recorded” stand apart in the source; their conditions may differ. Like-named read-outs stand apart in the source and are kept apart here.

The test system of experiment [1] is GLT-1. The note with it: Zelenaia et al. 2000, cited from earlier work; for effect on db-cAMP-dependent GLT-1 expression: db-cAMP-treated astrocytes; for GLT-1 induction in cultured astrocytes: Schlag et al. 1998.
Experiment [2] relates to GLAST. In words: Western blot of cultured astrocytes, GLAST protein. The note with it: 3 or 7 days, normalized to β-actin. In kind it is cell-based, rat. On the procedure: (§1) After approximately 14 days (2 days after subplating into plates, DIV 14) astrocytes had formed a confluent monolayer. […] Phase contrast microscopy was then carried out in order to assess the morphology of cells after the various treatments. Length of astrocyte processes was quantified by measuring all processes in 2-3 phase contrast images/group by an independent observer, blinded to the treatment groups using Image J v1.34s (National Institutes of Health, Bethesda, Md.).
Cells were scraped into PBS containing a protease inhibitor cocktail (1:1000, Sigma Chemical Co., St. Louis, Mo.) and then lysed by sonication in 5 one-second pulses. The samples were stored at −80° C. until use. Total protein was determined using the Lowry method (DC assay, Bio-Rad, Hercules, Calif.). Forty micrograms of protein (diluted in sample buffer and boiled) and standard protein markers were subjected to SDS/7.5% polyacrylamide gel electrophoresis and transferred to polyvinylidene difluoride (PVDF) membranes. Nonspecific binding was blocked by incubation with 5% milk/PBS-Tween at room temperature for 1 hour followed by incubation overnight at 4° C. with rabbit anti-GLT-1 (1:500) or guinea pig anti-GLAST (1:2500). The following day, blots were washed and incubated for 1 hour at room temperature with goat anti-rabbit HRP-conjugated secondary (1:3000) or goat anti-guinea pig HRP-conjugated secondary antibody (1:5000) and visualized with enhanced chemiluminescence (ECL). Images were obtained using the Typhoon Imaging System (Amersham-GE Healthcare, Piscataway, N.J.). Finally, blots were incubated for 15 minutes in stripping buffer and reprobed with a monoclonal mouse anti-β-actin antibody (1:10,000) as a loading control. Densitometric analysis was performed using ImageQuant 5.2 (Molecular Dynamics, GE Healthcare, Piscataway, N.J.).

The subject of experiment [3] is GLAST. In words: Immunocytochemistry of cultured astrocytes, GLAST staining. The class given is cell-based, rat. The note with it: treated astrocytes. On the procedure: Primary astrocyte-enriched cultures were plated onto sterile 18 mm glass coverslips. After three washes in PBS, cells were permeabilized in 5% glacial acetic acid/95% ethanol (acid-alcohol) for 10 minutes. After washing, cells were incubated in a 1% normal goat serum for 30 minutes and then overnight at 4° C. in primary mouse anti-GFAP (1:500), rabbit anti-GLT-1 (1:500) or guinea pig anti-GLAST (1:2000). The following day, cells were washed and then incubated for 2 hours at room temperature with goat anti-mouse Alexa Fluor™-555 (Invitrogen Corporation, Carlsbad, Calif.) goat anti-guinea pig Alexa Fluor™-488 (Invitrogen Corporation, Carlsbad, Calif.) or goat anti-rabbit Alexa Fluor™-488 (Invitrogen Corporation, Carlsbad, Calif.; all at 1:250). Finally, cells were post-fixed in acid-alcohol and mounted with Vectashield (Vector Labs, Burlingame, Calif.) containing 4′,6-diamidino-2-phenylindole dihydrochloride hydrate (DAPI, Sigma Chemical Co., St Louis, Mo.), in order to visualize cell nuclei. The sections were examined with a fluorescence microscope, and images were captured with a Q-Fire cooled camera (Olympus, Melville, N.Y.). Confocal microscopy was also performed using a Zeiss LSM 510 Meta confocal microscope (Carl Zeiss AG, Oberkochen, Germany). Merged color images were processed using Adobe Photoshop 7.0 (Adobe Systems, San Jose, Calif.).

For experiment [4], the system named is GLAST mRNA. In words: Real Time RT-PCR of cultured astrocytes, GLAST mRNA. The class given is cell-based, rat. The note with it: propentofylline 10, 100, 1000 μM; db-cAMP 250 μM; relative to GAPDH. On the procedure:
as §1
Total RNA was isolated from astrocyte cultures using the Qiagen RNeasy mini-kit (Qiagen Inc., Valencia, Calif.) according to the manufacturer's protocol for isolation of total RNA from animal cells. Reverse transcription (RT) was carried out using the high-capacity cDNA archive kit (Applied Biosystems, Foster City, Calif.) according to the vendor's protocol. Real-time RT-PCR reactions were carried out in a total reaction volume of 25 μL containing a final concentration of 1.5 U Platinum Taq DNA polymerase (Invitrogen Corporation, Carlsbad, Calif.); 20 mM Tris HCl (pH 8.4); 50 mM KCl; 3 mM MgCl2; 200 μM dGTP, dCTP, and dATP; 400 μM dUTP and 1 U of UDG (uracyl DNA glycosylase); 900 nM of forward and reverse primers; 300 nM Taqman probe; and 5 μL of cDNA (50 ng) from the RT step. The iCycler™ Multicolor Real-Time PCR detection system (Bio-Rad Laboratories, Hercules, Calif.) was used to quantify PCR product. The fluorescence and threshold values (CT) obtained were used to compare the relative amount of target mRNA in experimental groups to those of controls using the 2^−ΔΔC^T method (Livak, K. J. and T. D. Schmittgen. 2001. Methods 25:402-408). Each experiment was run twice and samples were run in duplicate. For each sample, the mean CT value for the control gene (GAPDH) was then subtracted from the mean CT value for the gene of interest (GLT-1, GLAST) to obtain a ΔCT value. […] The relative fold change from control was then expressed by calculation of 2^−ΔΔC^T for each sample and the results are expressed as the group mean fold change±SEM.
A general note: Real-time PCR tracks product formation cycle by cycle.

The test system of experiment [5] is MIP-2 (CXCL2). Nature of the experiment: ELISA of MIP-2 release from cultured astrocytes. The class given is cell-based, rat. The note with it: seven days, LPS 1 μg/ml; propentofylline 1000 μM; db-cAMP 250 μM. On the procedure: as §1
(§2) Standard ELISA was performed for quantitative determination of MCP-1 and MIP-2 protein in cell culture supernatant. Assays were carried out according to the manufacturer's specifications (Biosource, Camarillo, Calif.) using the sandwich enzyme immunoassay procedure. Optical density at 450 nm was obtained using the MRX Revelations program (Dynex Technologies, Chantilly, Va.) and relative protein concentrations were determined by comparing samples to the standard curve generated.
A general note: ELISA stands for enzyme-linked immunosorbent assay.

In experiment [6] the test system is primary cultured astrocytes. Nature of the experiment: Astrocyte morphology and process length, phase contrast microscopy. In kind it is cell-based, rat. On the procedure: Astrocyte cultures were prepared from the cortices of neonatal rats (1-3 days old) using the Worthington Papain Dissociation System (Worthington Biochemical Corporation, Lakewood, N.J.) according to the method of Huettner and Baughman (1986. J. Neurosci. 6:3044-3060). Briefly, cortices of neonatal rats were dissected, treated with papain (20 U/ml), dissociated by trituration and plated in 75 cm^2 flasks in Dulbecco's modified Eagle's medium (DMEM) supplemented with 10% charcoal-stripped fetal bovine serum (FBS), 1% GlutaMax and 1% penicillin/streptomycin (P/S, 100 U/ml penicillin, 100 μg/ml streptomycin, P/S). Cells were fed twice weekly until they reached confluence (Day in vitro, DIV 10-12) at which point they were mechanically shaken for 1 hr on an orbital shaker to remove any remaining oligodendrocytes and microglia. Subsequently, cultures were treated with trypsin for 30 minutes at 37° C. and re-plated into 6 or 12-well dishes at a density of about 3.0×10^4 cells/cm^2. Resultant cultures were greater than 95% astrocytic as determined by GFAP immunostaining.
as §1

For experiment [7], the system named is Na+-dependent glutamate transport. The note with it: db-cAMP, Schlag et al. 1998; cited from earlier work.
Experiment [8] deals with GLT-1 mRNA. Nature of the experiment: Real Time RT-PCR of cultured astrocytes, GLT-1 mRNA. The class given is cell-based, rat. The note with it: propentofylline 10, 100, 1000 μM; db-cAMP 250 μM; relative to GAPDH. On the procedure:
as §1
Total RNA was isolated from astrocyte cultures using the Qiagen RNeasy mini-kit (Qiagen Inc., Valencia, Calif.) according to the manufacturer's protocol for isolation of total RNA from animal cells. Reverse transcription (RT) was carried out using the high-capacity cDNA archive kit (Applied Biosystems, Foster City, Calif.) according to the vendor's protocol. Real-time RT-PCR reactions were carried out in a total reaction volume of 25 μL containing a final concentration of 1.5 U Platinum Taq DNA polymerase (Invitrogen Corporation, Carlsbad, Calif.); 20 mM Tris HCl (pH 8.4); 50 mM KCl; 3 mM MgCl2; 200 μM dGTP, dCTP, and dATP; 400 μM dUTP and 1 U of UDG (uracyl DNA glycosylase); 900 nM of forward and reverse primers; 300 nM Taqman probe; and 5 μL of cDNA (50 ng) from the RT step. The iCycler™ Multicolor Real-Time PCR detection system (Bio-Rad Laboratories, Hercules, Calif.) was used to quantify PCR product. The fluorescence and threshold values (CT) obtained were used to compare the relative amount of target mRNA in experimental groups to those of controls using the 2^−ΔΔC^T method (Livak, K. J. and T. D. Schmittgen. 2001. Methods 25:402-408). Each experiment was run twice and samples were run in duplicate. For each sample, the mean CT value for the control gene (GAPDH) was then subtracted from the mean CT value for the gene of interest (GLT-1, GLAST) to obtain a ΔCT value. The ΔCT values for the control group (untreated) were then averaged and subtracted from the ΔCT for the experimental groups to obtain the ΔΔCT. The relative fold change from control was then expressed by calculation of 2^−ΔΔC^T for each sample and the results are expressed as the group mean fold change±SEM.

In experiment [9] the test system is MCP-1 (CCL2). In words: ELISA of MCP-1 release from cultured astrocytes. The class given is cell-based, rat. The note with it: seven days. On the procedure: as §1, §2

`CCCCCCOC(=O)[C@]1(O)C[C@@H]2O[C@@]1(C)n1c3ccccc3c3c4c(c5c6ccccc6n2c5c31)C(=O)NC4` [KT5720]: the “effect on db-cAMP-dependent GLT-1 expression” value (“effect” for short) in experiment [1] is “blocks induction of GLT-1 protein”.
As for `COc1cccc(-c2cc(=O)c3ccccc3o2)c1N` [PD98059], the “effect” value in experiment [1] is “partially attenuates”.
On to `S=C(S)N1CCCC1` [PDTC], for which, in [1], the “effect” value was “inhibited db-cAMP-mediated increases in GLT-1 expression”.
For the compound `CCCC(=O)Nc1ncnc2c1ncn2[C@@H]1O[C@@H]2COP(=O)(O)O[C@H]2[C@H]1OC(=O)CCC` [db-cAMP, dibutyryl cyclic-adenosine-5′,3′-monophosphate], in [2], the “GLAST protein level, in words” value is listed as “greater increase in GLAST than high dose propentofylline”. Also, the GLAST staining entry in experiment [3] is “slightly increased GLAST staining”. Further, the “GLT-1 induction in cultured astrocytes” value in experiment [1] is given as “induced high levels of GLT-1 protein expression”. The “GLT-1 induction in cultured astrocytes” value in experiment [1] (listed as dibutyryl-cAMP) was “induce astrocytic maturation and GLT-1 induction”. Further, the “GLAST mRNA level, in words” value in [4] was “mimicked”. Moreover, in experiment [5], the “LPS-induced MIP-2 (CXCL2) release” value is given as “had no effect on LPS-induced chemokine release”. Further, in [6] (3 days or 7 days of treatment, phase contrast microscopy), the astrocyte morphology entry is on record as “extend fewer, longer processes”. Moreover, the “length of astrocyte processes” value in experiment [6] (7 days, 250 μM db-cAMP vs. 1000 μM propentofylline) is “significantly longer processes than propentofylline; also recorded: significantly longer processes than PPF”. Further, in experiment [7], the “increase in glutamate transport activity” value was 2 fold and the “sensitivity of increased glutamate uptake to DHK” value is “DHK-insensitive”. Besides, the “GLT-1 mRNA level, in words” value in experiment [8] is “mimicked”. Besides, in experiment [9] (LPS 1 μg/ml, propentofylline 1000 μM, db-cAMP 250 μM), the “LPS-induced MCP-1 (CCL2) release” value is reported as “had no effect on LPS-induced chemokine release”. Also, the “basal MCP-1 (CCL2) release, treatment alone” value in experiment [9] (without LPS) was “significantly increased MCP-1 (CCL2) above basal levels”.
